We go through one molecule from patent publication US20220142995A1, “DUAL ATM AND DNA-PK INHIBITORS FOR USE IN ANTI-TUMOR THERAPY” (XRAD Therapeutics, Inc., priority 2019, published 2022).

This experiment relates to pKAP1/KAP1 in MDA-231 tumors. Briefly: Pharmacodynamic assay, pKAP1/KAP1 in MDA-231 tumors. The class given is in vivo, mice. An excerpt: Tumor Studies. Female NCr nu/nu mice (Crl:NU(NCr)-Foxn1 nu, Strain 490) were obtained from Charles River at 5-6 weeks of age. All animal procedures used in these studies were approved by the Institutional Animal Care and Use Committee (IACUC) at Duke University.
FADU or MDA-MB-231 cells were harvested during log phase growth for in vivo implantation. The resuspended cells were washed three times in phosphate buffered saline (PBS) before preparing the working dilution in PBS. FADU cells were diluted to 1×10^7 cells/mL and MDA-MB-231 cells were diluted to 5×10^7 cells/mL. Each mouse was injected subcutaneously in the right flank with 100 μL of the cellular suspension. Tumor growth was monitored until the tumors reached a target volume of at least 100 mm^3, at which point mice were randomly stratified into four treatment groups.
The vehicle used in this study was 0.5% (Hydroxypropyl)methyl cellulose (HPMC) and 0.2% Tween80 dissolved in deionized water. The pH of the vehicle was adjusted to 7.0-8.0 and the vehicle was stored at 4° C. On each day of in vivo treatment an appropriate mass of test compound was added to the vehicle at room temperature. The mixture was vortexed as necessary to generate a final concentration of 1.6 mg/mL.
Pharmacodynamic (PD) assays. Tumor studies were performed as follows. Mice bearing FADU or MDA-231 tumors were pre-dosed with vehicle alone or compound 569 alone at 3, 6, and 10 mg/kg. Tumors were then irradiated with 10 Gy 45 min after vehicle or compound 569 administration or left unirradiated (vehicle and compound 569 at 10 mg/kg). Tumors were harvested 1 h post radiation.
Tissue homogenates for pharmacodynamic analyses were collected and processed as follows. Tumor tissues from FADU or MDA-MB-231 tumors were flash frozen in liquid nitrogen and pulverized on dry ice using a tissue pulverizer. A portion of the tumor powder was transferred into a microtube, followed by addition of 500 μL of RIPA buffer [[…], pH 8.0, 150 mM NaCl, 0.1% SDS, 0.5% sodium deoxycholate, 1% IGEPAL® CA-630 (Sigma, 18896)]. To 10 ml of RIPA buffer, 2 tablets each of Protease inhibitor and Phosphatase inhibitor (Roche, #04693159001 & #04906837001), 200 μL of 0.1 M PMSF and 160 μL of Aprotinin, (Sigma, A6279) were added. The suspension was homogenized on ice with a pellet pestle motor (KONTES) and incubated on ice for 30 minutes. Cell lysates were centrifuged at 13,200 rpm for 15 min at 4° C. and supernatants were transferred to a new tube and analyzed for protein concentration with a BCA kit (Pierce, 23227), followed by immunoblotting.

Molecule `CC(C)NCCOc1ncc(-c2cc3c4c(cnc3cc2F)N(C)C(=O)C42CCC2)cc1NS(C)(=O)=O` [Compound 569, N-(5-(7′-Fluoro-3′-methyl-2′-oxo-2′,3′-dihydrospiro[cyclobutane-1,1′-pyrrolo[2,3-c]quinolin]-8′-yl)-2-(2-(isopropylamino)ethoxy)pyridin-3-yl)methanesulfonamide] came in with a pKAP1/KAP1 (10 Gy, 3 mg/kg oral, harvested 1 h post radiation) of 0.327; a pKAP1/KAP1 (10 Gy, 6 mg/kg oral, harvested 1 h post radiation) of 0.0130; a pKAP1/KAP1 (10 Gy, 10 mg/kg oral, harvested 1 h post radiation) of 0.00901; a pKAP1/KAP1 (no radiation, 10 mg/kg oral) of −0.00319.
